Source: patent publication US11760775B2, “Steroids and protein-conjugates thereof” (Regeneron Pharmaceuticals, Inc., priority 2016, dated 2023)
Read-outs that look alike come from different tables or passages of the source.

Tests used:
[1] = target: Glucocorticoid Receptor (GR) (Homo sapiens (Human), UniProt P04150); experiment: LanthaScreen TR-FRET GR Competitive Binding Assay (cell free)
[2] = tested on: GR activation in 293/PRLR/GRE-Luc cells (HEK293/9xUAS-Luc2P/pBind-GR/PRLR-HA high cells); experiment: GR co-activator luciferase reporter cell based assay in 293/PRLR/GRE-Luc cells; parameters: species or system human; conditions: for Emax: HEK293, read-out: Activation (fold activation relative to Budesonide) in HEK293/9xUAS-Luc2P/pBind-GR/PRLR-HA high cells
Text: Bioassays described herein were used to assess the efficacy of free steroids and anti-PRLR-ncADCs. In one example, the bioassay assessed the activity of steroids, after internalization of a site-specific anti-PRLR-GC steroid ADC into cells, to bind to pBIND-GR and subsequent luciferase reporter activation. […] Then such stable cell line was further transfected with a chimeric receptor consisting of a GR ligand binding domain fused to the yeast Gal4 DNA binding domain (pBind-GR, Promega Cat #E1581), and a Gal4 upstream activator sequence (9×Gal4UAS-Luc2P) that drives luciferase gene expression.
(§1) For this assay, 20,000 cells were seeded in 96-well plates in media containing DMEM supplemented with 10% FBS and pencillin/streptomycin (complete media) and grown overnight at 37° C. in 5% CO2. […] Luciferase activity was determined by addition of OneGlo™ reagent (Promega, Cat #E6130) and relative light units (RLUs) were measured on a Victor luminometer (Perkin Elmer). The EC50 values were determined from a four-parameter logistic equation over a 10 point response curve using GraphPad Prism.
as §1, with “One-Glo™” for “OneGlo™”, “10-point” for “10 point”, “Prism. […] Minimal activation in this assay is defined as less than 10% of the maximal activation measured with the free payload.” for “Prism.”

[3] = Homo sapiens, 72 hours of incubation
[4] = Homo sapiens, HEK293, 72 hours of incubation, read-out: HEK293/9xUAS-Luc2P/pBind-GR/PRLR-HA high cells EC50

Sequence of Glucocorticoid Receptor (GR) (P04150 524-758): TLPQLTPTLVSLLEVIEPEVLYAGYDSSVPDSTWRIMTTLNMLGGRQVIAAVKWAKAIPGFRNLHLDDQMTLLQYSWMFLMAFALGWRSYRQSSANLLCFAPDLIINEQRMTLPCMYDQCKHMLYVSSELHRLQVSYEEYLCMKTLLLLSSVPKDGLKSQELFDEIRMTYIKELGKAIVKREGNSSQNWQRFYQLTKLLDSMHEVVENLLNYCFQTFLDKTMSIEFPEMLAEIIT

SMILES | IC50 [1] | Emax [2, 3] | EC50 [2, 4] | also measured
CCCC1O[C@@H]2C[C@H]3[C@@H]4C[C@H](F)C5=CC(=O)C=C[C@]5(C)[C@@]4(F)[C@@H](O)C[C@]3(C)[C@]2(C(=O)COc2cccc(N)c2)O1 (stereo partly drawn) [11-13 R, (1S,2S,4R,6R,8S,9S,11S,12R,13S,19S)-8-[2-(3-Aminophenoxy)acetyl]-12,19-difluoro-11-hydroxy-9,13-dimethyl-6-propyl-5,7-dioxapentacyclo[10.8.0.0^2,90.0^4,80.0^13,18]icosa-14,17-dien-16-one] | < 10 nM | > 75% | < 10 nM | 
CCCC1O[C@@H]2C[C@H]3[C@@H]4CCC5=CC(=O)C=C[C@]5(C)[C@H]4[C@@H](O)C[C@]3(C)[C@]2(C(=O)CNC)O1 (stereo partly drawn) [11-2 R/S, (1S,2S,4R,8S,9S,11S,12S,13R)-11-hydroxy-9,13-dimethyl-8-[2-(methylamino)acetyl]-6-propyl-5,7-dioxapentacyclo[10.8.0.0^2,90.0^4,80.0^13,18]icosa-14,17-dien-16-one] | 10 to 100 nM | > 75% | > 100 nM | 
[2H]c1c([2H])c(OCC(=O)[C@@]23OC(CCC)O[C@@H]2C[C@H]2[C@@H]4C[C@H](F)C5=CC(=O)C=C[C@]5(C)[C@@]4(F)[C@@H](O)C[C@@]23C)c([2H])c([2H])c1N (stereo partly drawn) [Compound 6-ID, (1S,2S,4R,8S,9S,11S,12R,13S,19S)-8-{2-[4-Amino(2,3,5,6-^2H4)phenoxy]acetyl}-12,19-difluoro-11-hydroxy-9,13-dimethyl-6-propyl-5,7-dioxapentacyclo[10.8.0.0^2,9.0^4,8.0^13,18]icosa-14,17-dien-16-one] | < 10 nM |  |  | EC50 ([2]; Homo sapiens, HEK293, read-out: HEK293/9xUAS-Luc2P/pBind-GR/PRLR-HA high cells EC50): < 10 nM; HEK293/9xUAS-Luc2P/pBind-GR/PRLR-HA high cells activation relative to Budesonide ([2]; fold activation vs Budesonide): Full
C[C@]12C=CC(=O)C=C1CC[C@@H]1[C@@H]2[C@@H](O)C[C@@]2(C)[C@H]1C[C@H]1OC(Cc3ccc(N)cc3)O[C@]12C(=O)CO (stereo partly drawn) [7-2 R/S, (1S,2S,4R,8S,9S,11S,12S,13R)-6[(4-Aminophenyl)methyl]-11-hydroxy-8-(2-hydroxyacetyl)-9,13-dimethyl-5,7-dioxapentacyclo[10.8.0.0^2,90.0^4,80.0^13,18]icosa-14,17-dien-16-one] | < 10 nM | < 20% | < 10 nM | Fold Activation ([2]; 293/PRLR/GRE-Luc cells, 72 hours): Full; EC50 ([2]; Homo sapiens, HEK293, 72 h, read-out: EC50): 10 to 100 nM
CCC[C@@H]1O[C@@H]2C[C@H]3[C@@H]4CCC5=CC(=O)C=C[C@]5(C)[C@H]4[C@@H](O)C[C@]3(C)[C@]2(C(=O)COc2ccc(N)cc2)O1 [11-5 R, (1S,2S,4R,8S,9S,11S,12S,13R)-8-[2-(4-Aminophenoxy)acetyl]-11-hydroxy-9,13-dimethyl-6-propyl-5,7-dioxapentacyclo[10.8.0.0^2,90.0^4,80.0^13,18]icosa-14,17-dien-16-one] | 10 to 100 nM | > 75% | < 10 nM | 
C[C@]12C=CC(=O)C=C1CC[C@@H]1[C@@H]2[C@@H](O)C[C@@]2(C)[C@H]1C[C@H]1O[C@H](c3ccc(N)cc3)O[C@]12C(=O)CO [7-1 S, (1S,2S,4R,6S,8S,9S,11S,12S,13R)-6-(4 Aminophenyl)-11-hydroxy-8-(2-hydroxyacetyl)-9,13-dimethyl-5,7-dioxapentacyclo[10.8.0.0^2,90.0^4,80.0^13,18]icosa-14,17-dien-16-one] | < 10 nM | 20 to 75% | > 100 nM | 
C[C@@H]1C[C@H]2[C@@H]3C[C@H](F)C4=CC(=O)C=C[C@]4(C)[C@@]3(F)[C@@H](O)C[C@]2(C)[C@@]1(O)C(=O)COc1ccc(N)cc1 [Compound 15-5, (1R,2S,8S,10S,11S,13R,14R,155,17S)-14-[2-(4-Aminophenoxy)acetyl]-1,8-difluoro-14,17-dihydroxy-2,13,15-trimethyltetracyclo[8.7.0.0^2,70.0^11,15]heptadeca-3,6-dien-5 one] | 10 to 100 nM |  |  | Activation (fold activation relative to Budesonide) in HEK293/9xUAS-Luc2P/pBind-GR/PRLR-HA high cells ([2]; 72 hours of incubation): Full activation (Full activation: >75% of fold activation induced by Budesonide); EC50 ([2]; 72 hours of incubation, read-out: HEK293/9xUAS-Luc2P/pBind-GR/PRLR-HA high cells EC50): 10 to 100 nM
CCC[C@@H]1O[C@@H]2C[C@H]3[C@@H]4CCC5=CC(=O)C=C[C@]5(C)[C@H]4[C@@H](O)C[C@]3(C)[C@]2(C(=O)COc2ccc(NC(C)=O)cc2)O1 [11-11 R/S, N-(4-{2-[(1S,2S,4R,6R,8S,9S,11S,12S,13R)-11-Hydroxy-9,13-dimethyl-16-oxo-6-propyl-5,7-dioxapentacyclo[10.8.0.0^2,90.0^4,80.0^13,18]icosa-14,17-dien-8-yl]-2-oxoethoxy}phenyl)acetamide] | < 10 nM | < 20% | > 100 nM | 
CCCC1O[C@@H]2C[C@H]3[C@@H]4C[C@H](F)C5=CC(=O)C=C[C@]5(C)[C@@]4(F)[C@@H](O)C[C@]3(C)[C@]2(C(=O)CNC)O1 (stereo partly drawn) [11-21 R/S, (1S,2S,4R,8S,9S,11S,12R,13S,19S)-12,19-Difluoro-11-hydroxy-9,13-dimethyl-8-[2-(methylamino)acetyl]-6-propyl-5,7-dioxapentacyclo[10.8.0.0^2,90.0^4,80.0^13,18]icosa-14,17-dien-16-one; trifluoroacetic acid] | < 10 nM | 20 to 75% | 10 to 100 nM | 
CC(C)C(=O)OCC(=O)[C@@]12OC(Cc3ccc(N)cc3)O[C@@H]1C[C@H]1[C@@H]3CCC4=CC(=O)C=C[C@]4(C)[C@H]3[C@@H](O)C[C@@]12C (stereo partly drawn) [8-2 R/S, 2[(1S,2S,4R,8S,9S,11S,12S,13R)-6[(4-Aminophenyl)methyl]-11-hydroxy-9,13-dimethyl-16-oxo-5,7-dioxapentacyclo[10.8.0.0^2,90.0^4,80.0^13,18]icosa-14,17-dien-8-yl]-2-oxoethyl 2-methylpropanoate] | < 10 nM | < 20% | > 100 nM | 
CC(C)C(=O)OCC(=O)[C@@]12OC(CCN)O[C@@H]1C[C@H]1[C@@H]3CCC4=CC(=O)C=C[C@]4(C)[C@H]3[C@@H](O)C[C@@]12C (stereo partly drawn) [8-3 R/S, 2[(1S,2S,4R,8S,9S,11S,12S,13R)-6-(2-Aminoethyl)-11-hydroxy-9,13-dimethyl-16-oxo-5,7-dioxapentacyclo[10.8.0.0^2,90.0^4,8. 0^13,18]icosa-14,17-dien-8-yl]-2-oxoethyl 2-methylpropanoate] | < 10 nM | < 20% | > 100 nM | 
CCCC1O[C@@H]2C[C@H]3[C@@H]4CCC5=CC(=O)C=C[C@]5(C)[C@H]4[C@@H](O)C[C@]3(C)[C@]2(C(=O)COc2ccc(N)cc2)O1 (stereo partly drawn) [11-5 R/S, (1S,2S,4R,8S,9S,11S,12S,13R)-8-[2-(4-Aminophenoxy)acetyl]-11-hydroxy-9,13-dimethyl-6-propyl-5,7-dioxapentacyclo[10.8.00^2,90.0^4,80.0^13,18]icosa-14,17-dien-16-one] | 10 to 100 nM | > 75% | < 10 nM | 
CCCC1O[C@@H]2C[C@H]3[C@@H]4C[C@H](F)C5=CC(=O)C=C[C@]5(C)[C@@]4(F)[C@@H](O)C[C@]3(C)[C@]2(C(=O)CN(C)Cc2ccc(OC)cc2)O1 (stereo partly drawn) [11-20 R/S, (1S,2S,4R,8S,9S,11S,12R,13S,19S)-12,19-Difluoro-11-hydroxy-8-(2-{[(4-methoxyphenyl)methyl](methyl)amino}acetyl)-9,13-dimethyl-6-propyl-5,7-dioxapentacyclo[10.8.0.0^2,90.0^4,80.0^13,18]icosa-14,17-dien-16-one; trifluoroacetic acid] | < 10 nM |  | > 100 nM | Activation (fold activation relative to Budesonide) in HEK293/9xUAS-Luc2P/pBind-GR/PRLR-HA high cells ([2]; 72 hours of incubation): no activation
CCC[C@H]1O[C@@H]2C[C@H]3[C@@H]4CCC5=CC(=O)C=C[C@]5(C)[C@H]4[C@@H](O)C[C@]3(C)[C@]2(C(=O)COc2ccc(N)cc2)O1 [11-5 S, (1S,2S,4R,8S,9S,11S,12S,13R)-8-[2-(4-Aminophenoxy)acetyl]-11-hydroxy-9,13-dimethyl-6-propyl-5,7-dioxapentacyclo[10.8.0.0^2,90.0^4,80.0^13,18]icosa-14,17-dien-16-one] | 10 to 100 nM | > 75% | < 10 nM | 
CCC[C@@H]1O[C@@H]2C[C@H]3[C@@H]4CCC5=CC(=O)C=C[C@]5(C)[C@H]4[C@@H](O)C[C@]3(C)[C@]2(C(=O)COc2ccc(NC)cc2)O1 [11-8 R, (1S,2S,4R,6R,8S,9S,11S,12S,13R)-11-Hydroxyl-9,13-dimethyl-8-{2-[4-(methylamino)phenoxy]acetyl}-6-propyl-5,7-dioxapentacyclo-[10.8.0.0^2,90.0^4,80.0^13,18]icosa-, 14,17-dien-16-one] | 10 to 100 nM | > 75% | < 10 nM | 
